The source of these data is patent US20220144853A1, “IMIDAZOLINE DERIVATIVES AS CXCR4 MODULATORS” (Université de Paris, priority 2019, published 2022).

Counter-ions that a name gives are not always drawn. Where only a bound is given, the exact number is not on record here.

This assay concerns IFN production by activated PBMCs. As to the kind of experiment: IFN production by R848-activated PBMCs from healthy donors, twINNE reporter cell line. It is filed as cell-based, human. To be noted: Homo sapiens, PBMC, means of two results over 2 healthy donors, R848 5 μg/mL, IT1t: mean over all experiments, read-out: IC50 of anti-inflammatory activity (IFN production). As for the experimental part: 2) The blood from healthy donors was also obtained from “Etablissement Français du Sang” (convention #19/EFS/029), Paris, France.
In vitro experiments were performed using human peripheral blood mononuclear cells (PBMCs) isolated by density centrifugation from peripheral blood leukocyte separation medium, lymphoprep (Stemcell Technologies).
PBMCs were cultured in RPMI 1640 (Sigma-Aldrich, MO, USA) containing 10% heat-inactivated fetal bovine serum (Sigma-Aldrich, MO, USA) at 37° C./5% CO2.
2) The PBMCs used herein were prepared as described in part A “immune cells preparation”, section 2) above. PBMCs were seeded at 4.10^6/mL. […] Cells were then stimulated with the TLR7/8 agonist resiquimod—R848 (Sigma-Aldrich, MO, USA) at 5 μg/mL.
2) To quantify the secretion of functional IFN, a biological assay based on a stable cell line where luciferase reporter gene is controlled by five Interferon-Stimulated Response Elements (twINNE cell line) was used. It is important to note that the twINNE cell line is the same as the above mentioned STING-37 cell line but with constitutively expressed nanoluciferase. First, supernatants of R848-stimulated PBMCs (see part B, section 2) above) were harvested after 24 h of stimulation and frozen at −20° C. for storage. Then, supernatants were dispensed in culture wells of a 96-well plate containing 35.103 twINNE cells per well in Dulbecco's Modified Eagle's Medium supplemented with 10% Foetal Bovine Serum, 100 U/mL Penicillin and 100 μg/mL Streptomycin (1% Pen-Strep) and 1 mM glutamine (Sigma-Aldrich, MO, USA) at 37° C./5% […]. After 24 h of culture, luciferase activity was determined by adding 60 μL of Bright-Go reagents (Promega, Wisconsin, USA) to culture wells and measuring bioluminescence with EnSpire Multimode Plate Reader (PerkinElmer, Massachusetts, USA). When stated, for IC50 calculation, dose-response curves fitted using the nonlin fit (variable slope) analysis in GraphPad Prism software (GraphPad Software, California, USA).
As for `C1=C(CSC2=N[C@H]3COC[C@H]3N2)N2C(=N[C@@H]3COC[C@@H]32)S1` (mixture of isomers) [Example 36, mixture of (4aS,7aR)-3-((((3aS,6aR)-3a,4,6,6a-tetrahydro-1H-furo[3,4-d]imidazol-2-yl)thio)methyl)-4a,5,7,7a-tetrahydrofuro[3′,4′:4,5]imidazo[2,1-b]thiazole dihydrochloride and (4aR,7aS)-3-((((3aR,6aS)-3a,4,6,6a-tetrahydro-1H-furo[3,4-d]imidazol-2-yl)thio)methyl)-4a,5,7,7a-tetrahydrofuro[3′,4′: 4,5]imidazo[2,1-b]thiazole dihydrochloride], the half-inhibitory concentration (IC50) – broadly, the concentration at which inhibition is half-maximal – is at least 31 µM.

Regarding `CC1(C)CN=C(SCC2=CSC3=N[C@H]4CCCC(C4)N23)N1` (racemic) [Example 23, cis-3-(((5,5-dimethyl-4,5-dihydro-1H-imidazol-2-yl)thio)methyl)-6,7,8,9-tetrahydro-5H-5,9-methanothiazolo[3,2-a][1,3]diazocine dihydrochloride], the IC50 is at least 31 µM. The figure for `CCCCC1CN=C(SCC2=CSC3=N[C@H]4CCCCC4N23)N1` (mixture of isomers) [Example 54, trans-3-(((5-butyl-4,5-dihydro-1H-imidazol-2-yl)thio)methyl)-4a,5,6,7,8,8a-hexahydrobenzo[4,5]imidazo[2,1-b]thiazole dihydrochloride] is at most 10 µM; for `C1=C(CSC2=NCC(Cc3ccccc3)N2)N2C(=N[C@H]3CCCCC32)S1` (mixture of isomers) [Example 55, trans-3-(((5-benzyl-4,5-dihydro-1H-imidazol-2-yl)thio)methyl)-4a,5,6,7,8,8a-hexahydrobenzo[4,5]imidazo[2,1-b]thiazole dihydrochloride] it is at most 10 µM; for `C1=C(CSC2=N[C@H]3CCCC[C@@H]3N2)N2C(=N[C@H]3CCCCC32)S1` (mixture of isomers) [Example 56, trans-3-((((3aS,7aS)-3a,4,5,6,7,7a-hexahydro-1H-benzo[d]imidazol-2-yl)thio)methyl)-4a,5,6,7,8,8a-hexahydrobenzo[4,5]imidazo[2,1-b]thiazole dihydrochloride] it is at most 10 µM. The figure for `C1=C(CSC2=NCCN2)N2C(=N[C@H]3CCCCC32)S1` (mixture of isomers) [Example 59, trans-3-(((4,5-dihydro-1H-imidazol-2-yl)thio)methyl)-4a,5,6,7,8,8a-hexahydrobenzo[4,5]imidazo[2,1-b]thiazole dihydrochloride] is at most 10 µM. Take `CC(C)[C@@H]1N=C2SC=C(CSC3=NCC(C)(C)N3)N2[C@H]1C(C)C` (racemic) [Example 62, trans-3-(((5,5-dimethyl-4,5-dihydro-1H-imidazol-2-yl)thio)methyl)-5,6-diisopropyl-5,6-dihydroimidazo[2,1-b]thiazole dihydrochloride]: the IC50 is 10 to 31 µM.

Consider `CC1(C)CN2C(CSC3=N[C@H]4CCCC[C@@H]4N3)=CSC2=N1` [Example 4, 3-((((3aS,7aS)-3a,4,5,6,7,7a-hexahydro-1H-benzo[d]imidazol-2-yl)thio)methyl)-6,6-dimethyl-5,6-dihydroimidazo[2,1-b]thiazole dihydrochloride], for which the half-maximal inhibitory concentration (IC50) is at most 10 µM. Regarding `CC1(C)CN2C(CSC3=N[C@@H]4CCCC[C@@H]4N3)=CSC2=N1` [Example 5, 3-((((3R,7aS)-3a,4,5,6,7,7a-hexahydro-1H-benzo[d]imidazol-2-yl)thio)methyl)-6,6-dimethyl-5,6-dihydroimidazo[2,1-b]thiazole dihydrochloride], the half-maximal inhibitory concentration (IC50) lay in the range of 10 to 31 µM.

As to `C1=C(CSC2=NCCN2)N2CCN=C2S1` [Example 6, 3-(((4,5-dihydro-1H-imidazol-2-yl)thio)methyl)-5,6-dihydroimidazo[2,1-b]thiazole dihydrochloride], the 50% inhibitory concentration (IC50) fell in the range of 10 to 31 µM. For `CC1(C)CN2C(CSC3=NCCN3)=CSC2=N1` [Example 8, 3-(((4,5-dihydro-1H-imidazol-2-yl)thio)methyl)-6,6-dimethyl-5,6-dihydroimidazo[2,1-b]thiazole dihydrochloride], the IC50 was in the range of 10 to 31 µM. The result for `CC1(C)CN2C(CSC3=NCCCN3)=CSC2=N1` [Example 9, 6,6-dimethyl-3-(((1,4,5,6-tetrahydropyrimidin-2-yl)thio)methyl)-5,6-dihydroimidazo[2,1-b]thiazole dihydrochloride] reads at least 31 µM; that for `CN1CCN=C1SCC1=CSC2=NC(C)(C)CN12` [Example 11, 6,6-dimethyl-3-(((1-methyl-4,5-dihydro-1H-imidazol-2-yl)thio)methyl)-5,6-dihydroimidazo[2,1-b]thiazole dihydrochloride], at most 10 µM; that for `CC1(C)CN2C(CSC3=NCCCCN3)=CSC2=N1` [Example 12, 6,6-dimethyl-3-(((4,5,6,7-tetrahydro-1H-1,3-diazepin-2-yl)thio)methyl)-5,6-dihydroimidazo[2,1-b]thiazole dihydrochloride], at least 31 µM.

As to `CCCCC1CN=C(SCC2=CSC3=NC(C)(C)CN23)N1` (stereo not shown) [Example 13, 3-(((5-butyl-4,5-dihydro-1H-imidazol-2-yl)thio)methyl)-6,6-dimethyl-5,6-dihydroimidazo[2,1-b]thiazole dihydrochloride], the 50% inhibitory concentration (IC50) is at most 10 µM. `CC1(C)CN=C(SCC2=CSC3=NCCCN23)N1` [Example 14, 3-(((5,5-dimethyl-4,5-dihydro-1H-imidazol-2-yl)thio)methyl)-6,7-dihydro-5H-thiazolo[3,2-a]pyrimidine dihydrochloride]: the 50% inhibitory concentration (IC50) is at least 31 µM. The result for `CC1(C)CN=C(SCC2=CSC3=NCCCCN23)N1` [Example 15, 3-(((5,5-dimethyl-4,5-dihydro-1H-imidazol-2-yl)thio)methyl)-5,6,7,8-tetrahydrothiazolo[3,2-a][1,3]diazepine dihydrochloride] reads at least 31 µM; that for `CC1(C)CN2C(CSC3=NC(C)(C)C(C)(C)N3)=CSC2=N1` [Example 16, 6,6-dimethyl-3-(((4,4,5,5-tetramethyl-4,5-dihydro-1H-imidazol-2-yl)thio)methyl)-5,6-dihydroimidazo[2,1-b]thiazole dihydrochloride], at least 31 µM; that for `CCCCC1CN2C(CSC3=NCC(C)(C)N3)=CSC2=N1` (stereo not shown) [Example 19, 6-butyl-3-(((4,4-dimethyl-4,5-dihydro-1H-imidazol-2-yl)thio)methyl)-5,6-dihydroinidazo[2,1-b]thiazole dihydrochloride], 10 to 31 µM.

As for `CC1(C)CN=C(SCC2=CSC3=NC(C)(C)C(C)(C)N23)N1` [Example 20, 3-(((5,5-dimethyl-4,5-dihydro-1H-imidazol-2-yl)thio)methyl)-5,5,6,6-tetramethyl-5,6-dihydroimidazo[2,1-b]thiazole dihydrochloride], the IC50 fell in the range of 10 to 31 µM. Take `CC1(C)CN=C(SCC2=CSC3=NCCN23)N1` [Example 21, 3-(((5,5-dimethyl-4,5-dihydro-1H-imidazol-2-yl)thio)methyl)-5,6-dihydroimidazo[2,1-b]thiazole dihydrochloride]: the half-inhibitory concentration (IC50) was 10 to 31 µM. The result for `CC1(C)CN2C(CSC3=N[C@@H]4CCC[C@@H](C4)N3)=CSC2=N1` [Example 22, 3-((((1R,5S)-2,4-diazabicyclo[3.3.1]non-2-en-3-yl)thio)methyl)-6,6-dimethyl-5,6-dihydroimidazo[2,1-b]thiazole dihydrochloride] reads at least 31 µM.
